Series [1] deals with KB. The series can be described thus: Growth inhibition of human KB cells. It is filed as functional, cell-based.
Series [2] has as its system KB. The experiment in a line: Antitumor activity against human KB cells xenografted in mouse assessed as complete tumor reversion incidence at 0.5 umol/kg. It is filed as functional.
A short description of series [3]: Half life in pH 7.4 buffer at 37 degC in presence of 8 mM DTT. The format is physicochemical. Conditions: pH 7.4 buffer with 8 mM DTT.
The species named for series [4] is Homo sapiens. The series can be described thus: Binding affinity to folate receptor in human KB cells after 1 hr in presence of [3H]-FA by scintillation counting assay relative to control. The format is cell-based.
Series [5] is described as follows: Drug metabolism assessed as half life for N-hydroxyethylvindesine release at pH 5.
Series [6] is described as follows: Drug metabolism assessed as half life for N-hydroxyethylvindesine release at pH 7.4.
Series [7] has as its system LNCaP. The series can be described thus: Growth inhibition of PSMA-positive human LNCAP cells. It is filed as functional, cell-based.
Series [8] in a line: Prodrug conversion assessed as half life for parent compound release at pH 5. The format is ADME.
Series [9] is described as follows: Half life in pH 7.4 buffer at 37 degC in presence of GSH. It is filed as physicochemical. Conditions: pH 7.4 buffer with GSH.
Series [10] can be described thus: Drug metabolism assessed as half life for cleavage of disulfide bond at 1 mM pH 7.4 PBS in presence of 20 mM GSH at 37 degC.
The species entered for series [11] is Homo sapiens. The series can be described thus: Antitumor activity against NSCLC patients assessed as progression-free survival in presence of docetaxel in phase 2b clinical trial. It is filed as functional.
Series [12] is filed under the species Homo sapiens. The series can be described thus: Antitumor activity against NSCLC patients assessed as overall survival in presence of docetaxel in phase 2b clinical trial. The format is functional.
Series [13] in a line: Drug metabolism assessed as half life for cleavage of disulfide bond at 1 mM pH 7.4 PBS in presence of DTT at 37 degC.

In [1], `CCCC(=O)OCN(C(=O)[C@@H](NC(=O)[C@H]1CCCCN1C)[C@@H](C)CC)[C@H](C[C@@H](OC(C)=O)c1nc(C(=O)N[C@@H](Cc2ccc(O)cc2)C[C@H](C)C(=O)NNC(=O)OCCSSC[C@H](NC(=O)[C@H](CC(=O)O)NC(=O)[C@H](CC(=O)O)NC(=O)[C@H](CCCNC(=N)N)NC(=O)[C@H](CC(=O)O)NC(=O)CC[C@H](NC(=O)c2ccc(NCc3cnc4nc(N)[nH]c(=O)c4n3)cc2)C(=O)O)C(=O)O)cs1)C(C)C` had an IC50 of 7 nM. Further, the Activity in series [2] came to 80%.

As for `CC[C@]1(O)C[C@H]2CN(CCc3c([nH]c4ccccc34)[C@@](C(=O)OC)(c3cc4c(cc3OC)N(C)[C@H]3[C@@](O)(C(=O)NNC(=O)OCCSSC(C)(C)[C@H](NC(=O)[C@H](CC(=O)O)NC(=O)[C@H](CC(=O)O)NC(=O)[C@H](CCCNC(=N)N)NC(=O)[C@H](CC(=O)O)NC(=O)CC[C@H](NC(=O)c5ccc(NCc6cnc7nc(N)[nH]c(=O)c7n6)cc5)C(=O)O)C(=O)O)[C@H](O)[C@]5(CC)C=CCN6CC[C@]43[C@@H]65)C2)C1`, in [3], the half-life is 60 min.

`CC[C@]1(O)C[C@H]2CN(CCc3c([nH]c4ccccc34)[C@@](C(=O)OC)(c3cc4c(cc3OC)N(C)[C@H]3[C@@](O)(C(=O)NNC(=O)OCCSSC[C@H](NC(=O)c5ccc(NCc6cnc7nc(N)[nH]c(=O)c7n6)cc5)C(=O)O)[C@H](O)[C@]5(CC)C=CCN6CC[C@]43[C@@H]65)C2)C1`: in series [4], the relative binding affinity (RBA) was found to be 0.046.

As to `CC[C@]1(O)C[C@H]2CN(CCc3c([nH]c4ccccc34)[C@@](C(=O)OC)(c3cc4c(cc3OC)N(C)[C@H]3[C@@](O)(C(=O)NCCOC(OC)c5ccc(OCCN6C(=O)CC(SC[C@H](NC(=O)[C@H](CC(=O)O)NC(=O)[C@H](CC(=O)O)NC(=O)[C@H](CCCNC(=N)N)NC(=O)[C@H](CC(=O)O)NC(=O)CC[C@H](NC(=O)c7ccc(NCc8cnc9nc(N)[nH]c(=O)c9n8)cc7)C(=O)O)C(=O)O)C6=O)cc5)[C@H](O)[C@]5(CC)C=CCN6CC[C@]43[C@@H]65)C2)C1` (some centres undefined), the T1/2 in series [5] was 25 min; in series [6], 1320 min.

As for `CC[C@]1(O)C[C@H]2CN(CCc3c([nH]c4ccccc34)[C@@](C(=O)OC)(c3cc4c(cc3OC)N(C)[C@H]3[C@@](O)(C(=O)NNC(=O)OC(C)C(C)SSC[C@H](NC(=O)[C@H](CC(=O)O)NC(=O)[C@H](CC(=O)O)NC(=O)[C@H](CCCNC(=N)N)NC(=O)[C@H](CC(=O)O)NC(=O)CC[C@H](NC(=O)c5ccc(NCc6cnc7nc(N)[nH]c(=O)c7n6)cc5)C(=O)O)C(=O)O)[C@H](O)[C@]5(CC)C=CCN6CC[C@]43[C@@H]65)C2)C1` (some centres undefined), in series [3], the half-life was 30 min.

As to `CC[C@H](C)[C@H](NC(=O)[C@H]1CCCCN1C)C(=O)N(COC(=O)CC(C)C)[C@H](C[C@@H](OC(C)=O)c1nc(C(=O)N[C@@H](Cc2ccc(O)cc2)C[C@H](C)C(=O)NNC(=O)OCCSSC[C@H](NC(=O)[C@H](CC(=O)O)NC(=O)[C@H](CC(=O)O)NC(=O)[C@H](CCCNC(=N)N)NC(=O)[C@H](CC(=O)O)NC(=O)CC[C@H](NC(=O)c2ccc(NCc3cnc4nc(N)[nH]c(=O)c4n3)cc2)C(=O)O)C(=O)O)cs1)C(C)C`, the Activity in series [2] amounted to 80%.

Compound `CCCC(=O)OCN(C(=O)[C@@H](NC(=O)[C@H]1CCCCN1C)[C@@H](C)CC)[C@H](C[C@@H](OC(C)=O)c1nc(C(=O)N[C@@H](Cc2ccc(O)cc2)C[C@H](C)C(=O)NNC(=O)OCCSSC[C@H](NC(=O)[C@H](Cc2ccccc2)NC(=O)[C@H](CC(=O)O)NC(=O)CC[C@H](NC(=O)CC[C@@H](NC(=O)N[C@@H](CCC(=O)O)C(=O)O)C(=O)O)C(=O)O)C(=O)O)cs1)C(C)C` showed an IC50 in [7] of 3 nM.

As to `CC[C@]1(O)C[C@H]2CN(CCc3c([nH]c4ccccc34)[C@@](C(=O)OC)(c3cc4c(cc3OC)N(C)[C@H]3[C@@](O)(C(=O)N/N=C(\C)c5ccc(N6C(=O)CC(SC[C@H](NC(=O)[C@H](CC(=O)O)NC(=O)[C@H](CC(=O)O)NC(=O)[C@H](CCCNC(=N)N)NC(=O)[C@H](CC(=O)O)NC(=O)CC[C@H](NC(=O)c7ccc(NCc8cnc9nc(N)[nH]c(=O)c9n8)cc7)C(=O)O)C(=O)O)C6=O)cc5)[C@H](O)[C@]5(CC)C=CCN6CC[C@]43[C@@H]65)C2)C1` (some centres undefined), the t1/2 in series [8] stood at 330 min.

Consider `Nc1nc(=O)c2nc(CNc3ccc(C(=O)N[C@@H](CCC(=O)O)C(=O)O)cc3)cnc2[nH]1`, for which the relative binding affinity (RBA) in series [4] is 1.

For the compound `CC[C@]1(O)C[C@H]2CN(CCc3c([nH]c4ccccc34)[C@@](C(=O)OC)(c3cc4c(cc3OC)N(C)[C@H]3[C@@](O)(C(=O)NNC(=O)OC(C)C(C)SSC(C)(C)[C@H](NC(=O)[C@H](CC(=O)O)NC(=O)[C@H](CC(=O)O)NC(=O)[C@H](CCCNC(=N)N)NC(=O)[C@H](CC(=O)O)NC(=O)CC[C@H](NC(=O)c5ccc(NCc6cnc7nc(N)[nH]c(=O)c7n6)cc5)C(=O)O)C(=O)O)[C@H](O)[C@]5(CC)C=CCN6CC[C@]43[C@@H]65)C2)C1` (some centres undefined), the half-life in series [3] was over 480 min.

In the case of `CC[C@]1(O)C[C@H]2CN(CCc3c([nH]c4ccccc34)[C@@](C(=O)OC)(c3cc4c(cc3OC)N(C)[C@H]3[C@@](O)(C(=O)NNC(=O)OCc5ccc(SSC[C@H](NC(=O)[C@H](CC(=O)O)NC(=O)[C@H](CC(=O)O)NC(=O)[C@H](CCCNC(=N)N)NC(=O)[C@H](CC(=O)O)NC(=O)CC[C@H](NC(=O)c6ccc(NCc7cnc8nc(N)[nH]c(=O)c8n7)cc6)C(=O)O)C(=O)O)cc5)[C@H](O)[C@]5(CC)C=CCN6CC[C@]43[C@@H]65)C2)C1`, the half-life in series [3] was under 5 min; in series [9] it was 45 min.

With `CC[C@]1(O)C[C@H]2CN(CCc3c([nH]c4ccccc34)[C@@](C(=O)OC)(c3cc4c(cc3OC)N(C)[C@H]3[C@@](O)(C(=O)NNC(=O)OCCSSC[C@H](NC(=O)[C@H](CC(=O)O)NC(=O)[C@H](CC(=O)O)NC(=O)[C@H](CCCNC(=N)N)NC(=O)[C@H](CC(=O)O)NC(=O)CC[C@H](NC(=O)c5ccc(NCc6cnc7nc(N)[nH]c(=O)c7n6)cc5)C(=O)O)C(=O)O)[C@H](O)[C@]5(CC)C=CCN6CC[C@]43[C@@H]65)C2)C1`, in series [4], the relative binding affinity (RBA) was determined as 0.47. Also, the results for the T1/2 in series [10] and in series [13] were 60 min and 5 min, respectively. In addition, the values for the Survival in [11] and in [12] were 7.1 months and 10.9 months, respectively.

The record behind these values is ChEMBL document CHEMBL4411298, “Small molecule-drug conjugates: A novel strategy for cancer-targeted treatment” (Eur J Med Chem, 2019).
